Assay results taken from patent US12421254B2, “KRAS modulators and uses thereof” (Quanta Therapeutics, Inc., priority 2023, dated 2025).

Experiments:
[1] = target: GST-tagged KRAS-G12V (2-169) (Homo sapiens, UniProt P01116, G12V); assay: Nucleotide exchange assay (NEA), SOS-mediated, HTRF, KRAS G12V; format: biochemical; conditions: Table 4; IC50 extracted at 90 min; 80 nM SOS
Summary of the method: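 GST-KRAS-G12V (2-169), 0.25 nM, pre-incubated 1 h at RT with compound, then SOS1cat (564-1049) 80 nM and GTP-DY-647P1 150 nM added in HEPES pH 7.3 buffer with MgCl2 and DTT. HTRF via anti-GST Tb cryptate read over 90 min; IC50 from 4-parameter fit at 90 min, blanked to no-SOS reactions.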

[2] = target: GST-tagged KRAS-G12D (2-169) (Homo sapiens, UniProt P01116, G12D); assay: Nucleotide exchange assay (NEA), SOS-mediated, HTRF, KRAS G12D; format: biochemical; conditions: Table 4; IC50 extracted at 30 min; 20 nM SOScat; read-out: NEA G12D IC50
Summary of the method: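 Compound preincubated 1 h at RT with 0.25 nM GST-KRAS-G12D (2-169) and anti-GST Tb donor, then 20 nM SOS1cat (564-1049) and 150 nM GTP-DY-647P1 added; pH 7.3 HEPES buffer with MgCl2 and DTT. HTRF monitored at RT; % inhibition versus DMSO and no-SOS blank, 4-parameter IC50 taken at 30 min.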

GST-tagged KRAS-G12D (2-169), sequence (P01116 2-169 isoform P01116-2 G12D): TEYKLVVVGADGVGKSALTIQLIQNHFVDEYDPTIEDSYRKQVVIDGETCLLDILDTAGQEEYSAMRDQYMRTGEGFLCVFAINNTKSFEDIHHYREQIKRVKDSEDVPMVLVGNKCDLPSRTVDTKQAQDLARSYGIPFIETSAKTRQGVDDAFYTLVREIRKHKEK
GST-tagged KRAS-G12V (2-169), sequence (P01116 2-169 isoform P01116-2 G12V): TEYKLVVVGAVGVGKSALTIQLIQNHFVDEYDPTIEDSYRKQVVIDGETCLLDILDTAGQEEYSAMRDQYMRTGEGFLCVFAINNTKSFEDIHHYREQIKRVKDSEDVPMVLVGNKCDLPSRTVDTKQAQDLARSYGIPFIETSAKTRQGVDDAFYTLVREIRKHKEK

Compound | IC50 [1] [µM] | IC50 [2] [µM]
C[C@@]1(CO)C[C@H](O)CN1c1nc(OC[C@@]23CCCN2C[C@H](F)C3)nc(N2CC3(CCc4sc(N)c(C#N)c43)C2)n1 [Compound 66, 2-amino-1′-[4-[[(2R,8S)-2-fluoro-1,2,3,5,6,7-hexahydropyrrolizin-8-yl]methoxy]-6-[(2S,4S)-4-hydroxy-2-(hydroxymethyl)-2-methyl-pyrrolidin-1-yl]-1,3,5-triazin-2-yl]spiro[5,6-dihydrocyclopenta[b]thiophene-4,3′-azetidine]-3-carbonitrile] | 0.01 to 0.1 | 0.1 to 1
C[C@]1(CO)C[C@H](O)CN1c1nc(OC[C@@]23CCCN2C[C@H](F)C3)nc(N2CC3(CCc4sc(N)c(C#N)c43)C2)n1 [Compound 72, 2-amino-1′-[4-[[(2R,8S)-2-fluoro-1,2,3,5,6,7-hexahydropyrrolizin-8-yl]methoxy]-6-[(2R,4S)-4-hydroxy-2-(hydroxymethyl)-2-methyl-pyrrolidin-1-yl]-1,3,5-triazin-2-yl]spiro[5,6-dihydrocyclopenta[b]thiophene-4,3′-azetidine]-3-carbonitrile] | 0.1 to 1 | 0.1 to 1
C[C@]1(O)C[C@H](O)CN(c2nc(OC[C@@]34CCCN3C[C@H](F)C4)nc(N3CC4(CCc5sc(N)c(C#N)c54)C3)n2)C1 [Compound 75, 2-amino-1′-[4-[(3S,5S)-3,5-dihydroxy-3-methyl-1-piperidyl]-6-[[(2R,8S)-2-fluoro-1,2,3,5,6,7-hexahydropyrrolizin-8-yl]methoxy]-1,3,5-triazin-2-yl]spiro[5,6-dihydrocyclopenta[b]thiophene-4,3′-azetidine]-3-carbonitrile] | 0.1 to 1 | 1 to 20
N#Cc1c(N)sc2c1C1(CC2)CN(c2nc(OCC3(O)CC3)nc(OC[C@@]34CCCN3C[C@H](F)C4)n2)C1 [Compound 76, 2-amino-1′-[4-[[(2R,8S)-2-fluoro-1,2,3,5,6,7-hexahydropyrrolizin-8-yl]methoxy]-6-[(1-hydroxycyclopropyl)methoxy]-1,3,5-triazin-2-yl]spiro[5,6-dihydrocyclopenta[b]thiophene-4,3′-azetidine]-3-carbonitrile] | 0.1 to 1 | 1 to 20
N#Cc1c(N)sc2c1C1(CC2)CN(c2nc(OC[C@@]34CCCN3C[C@H](F)C4)nc(OC3CCOC3)n2)C1 (stereo partly drawn) [Compound 78, 2-amino-1′-[4-[[(2R,8S)-2-fluoro-1,2,3,5,6,7-hexahydropyrrolizin-8-yl]methoxy]-6-tetrahydrofuran-3-yloxy-1,3,5-triazin-2-yl]spiro[5,6-dihydrocyclopenta[b]thiophene-4,3′-azetidine]-3-carbonitrile; formic acid] | 0.1 to 1 | 1 to 20
CC(c1cccnc1N)N(C)c1nc(OC[C@@]23CCCN2C[C@H](F)C3)nc(N2CC3(CCc4sc(N)c(C#N)c43)C2)n1 (stereo partly drawn) [Compound 83, 2-amino-1′-[4-[1-(2-amino-3-pyridyl)ethyl-methyl-amino]-6-[[(2R,8S)-2-fluoro-1,2,3,5,6,7-hexahydropyrrolizin-8-yl]methoxy]-1,3,5-triazin-2-yl]spiro[5,6-dihydrocyclopenta[b]thiophene-4,3′-azetidine]-3-carbonitrile] | < 0.01 | < 0.01
CC(Nc1nc(OC[C@@]23CCCN2C[C@H](F)C3)nc(N2CC3(CCc4sc(N)c(C#N)c43)C2)n1)c1cccnc1N (stereo partly drawn) [Compound 88, 2-amino-1′-[4-[1-(2-amino-3-pyridyl)ethylamino]-6-[[(2R,8S)-2-fluoro-1,2,3,5,6,7-hexahydropyrrolizin-8-yl]methoxy]-1,3,5-triazin-2-yl]spiro[5,6-dihydrocyclopenta[b]thiophene-4,3′-azetidine]-3-carbonitrile] | < 0.01 | 0.1 to 1
N#Cc1c(N)sc2c1C1(CC2)CN(c2nc(OCC3(CN4CCOCC4)CC3)nc(N3CCCC(O)(CO)C3)n2)C1 (stereo not drawn) [Compound 95, 2-amino-1′-[4-[3-hydroxy-3-(hydroxymethyl)-1-piperidyl]-6-[[1-(morpholinomethyl)cyclopropyl]methoxy]-1,3,5-triazin-2-yl]spiro[5,6-dihydrocyclopenta[b]thiophene-4,3′-azetidine]-3-carbonitrile] | 0.01 to 0.1 | 0.01 to 0.1
N#Cc1c(N)sc2c1C1(CC2)CN(c2nc(OC[C@@]34CCCN3C[C@H](F)C4)nc(N3CCSc4ncccc4C3)n2)C1 [Compound 99, 2-amino-1′-[4-(3,5-dihydro-2H-pyrido[3,2-f][1,4]thiazepin-4-yl)-6-[[(2R,8S)-2-fluoro-1,2,3,5,6,7-hexahydropyrrolizin-8-yl]methoxy]-1,3,5-triazin-2-yl]spiro[5,6-dihydrocyclopenta[b]thiophene-4,3′-azetidine]-3-carbonitrile] | 0.1 to 1 | 1 to 20
CC(c1nccnc1N)N(C)c1nc(OC[C@@]23CCCN2C[C@H](F)C3)nc(N2CC3(CCc4sc(N)c(C#N)c43)C2)n1 (stereo partly drawn) [Compound 102, 2-amino-1′-[4-[1-(3-aminopyrazin-2-yl)ethyl-methyl-amino]-6-[[(2R,8S)-2-fluoro-1,2,3,5,6,7-hexahydropyrrolizin-8-yl]methoxy]-1,3,5-triazin-2-yl]spiro[5,6-dihydrocyclopenta[b]thiophene-4,3′-azetidine]-3-carbonitrile] | < 0.01 | 0.01 to 0.1
CC(c1cccnc1N)N(CCO)c1nc(OC[C@@]23CCCN2C[C@H](F)C3)nc(N2CC3(CCc4sc(N)c(C#N)c43)C2)n1 (stereo partly drawn) [Compound 110, 2-amino-1′-[4-[1-(2-amino-3-pyridyl)ethyl-(2-hydroxyethyl)amino]-6-[[(2R,8S)-2-fluoro-1,2,3,5,6,7-hexahydropyrrolizin-8-yl]methoxy]-1,3,5-triazin-2-yl]spiro[5,6-dihydrocyclopenta[b]thiophene-4,3′-azetidine]-3-carbonitrile] | < 0.01 | < 0.01
CC(c1cccnc1N)N(C)c1nc(OC[C@@H]2CCC(=O)N2)nc(N2CC3(CCc4sc(N)c(C#N)c43)C2)n1 (stereo partly drawn) [Compound 112, 2-amino-1′-[4-[1-(2-amino-3-pyridyl)ethyl-methyl-amino]-6-[[(2S)-5-oxopyrrolidin-2-yl]methoxy]-1,3,5-triazin-2-yl]spiro[5,6-dihydrocyclopenta[b]thiophene-4,3′-azetidine]-3-carbonitrile] | 0.1 to 1 | 1 to 20
CC(c1cccnc1N)N(C)c1nc(OC[C@@]23CCCN2C[C@H](F)C3)nc(N2CC3(C2)SCc2sc(N)c(C#N)c23)n1 (stereo partly drawn) [Compound 115, 2-amino-1′-[4-[1-(2-amino-3-pyridyl)ethyl-methyl-amino]-6-[[(2R,8S)-2-fluoro-1,2,3,5,6,7-hexahydropyrrolizin-8-yl]methoxy]-1,3,5-triazin-2-yl]spiro[6H-thieno[3,4-b]thiophene-4,3′-azetidine]-3-carbonitrile] | < 0.01 | < 0.01
CC(c1ccn(C)n1)N(C)c1nc(OC[C@@]23CCCN2C[C@H](F)C3)nc(N2CC3(CCc4sc(N)c(C#N)c43)C2)n1 (stereo partly drawn) [Compound 119, 2-amino-1′-[4-[[(2R,8S)-2-fluoro-1,2,3,5,6,7-hexahydropyrrolizin-8-yl]methoxy]-6-[methyl-[1-(1-methylpyrazol-3-yl)ethyl]amino]-1,3,5-triazin-2-yl]spiro[5,6-dihydrocyclopenta[b]thiophene-4,3′-azetidine]-3-carbonitrile] | 1 to 20 | 1 to 20
CC(c1ccccc1N)N(C)c1nc(OC[C@@]23CCCN2C[C@H](F)C3)nc(N2CC3(CCc4sc(N)c(C#N)c43)C2)n1 (stereo partly drawn) [Compound 121, 2′-amino-1-(4-((1-(2-aminophenyl)ethyl)(methyl)amino)-6-(((2R,7aS)-2-fluorotetrahydro-1H-pyrrolizin-7a(5H)-yl)methoxy)-1,3,5-triazin-2-yl)-5′,6′-dihydrospiro[azetidine-3,4′-cyclopenta[b]thiophene]-3′-carbonitrile] | ≥ 20 | ≥ 20
CC(c1ccnn1C)N(C)c1nc(OC[C@@]23CCCN2C[C@H](F)C3)nc(N2CC3(CCc4sc(N)c(C#N)c43)C2)n1 (stereo partly drawn) [Compound 125, 2-amino-1′-[4-[[(2R,8S)-2-fluoro-1,2,3,5,6,7-hexahydropyrrolizin-8-yl]methoxy]-6-[methyl-[i-(2-methylpyrazol-3-yl)ethyl]amino]-1,3,5-triazin-2-yl]spiro[5,6-dihydrocyclopenta[b]thiophene-4,3′-azetidine]-3-carbonitrile] | 0.01 to 0.1 | 1 to 20
C[C@@]1(O)CCCN(c2nc(OC[C@@]34CCCN3C[C@H](F)C4)nc(N3CC4(C3)c3c(sc(N)c3C#N)C[S+]4[O-])n2)C1 (stereo partly drawn) [Compound 126, 2-amino-5-oxo-1′-[4-[[(2R,8S)-2-fluoro-1,2,3,5,6,7-hexahydropyrrolizin-8-yl]methoxy]-6-[(3R)-3-hydroxy-3-methyl-1-piperidyl]-1,3,5-triazin-2-yl]spiro[6H-thieno[3,4-b]thiophene-4,3′-azetidine]-3-carbonitrile] | 1 to 20 | 0.01 to 0.1
CC(C1=NN=CC1Cl)N(C)c1nc(OC[C@@]23CCCN2C[C@H](F)C3)nc(N2CC3(CCc4sc(N)c(C#N)c43)C2)n1 (stereo partly drawn) [Compound 127, 2-amino-1′-[4-[1-(4-chloro-1H-pyrazol-5-yl)ethyl-methyl-amino]-6-[[(2R,8S)-2-fluoro-1,2,3,5,6,7-hexahydropyrrolizin-8-yl]methoxy]-1,3,5-triazin-2-yl]spiro[5,6-dihydrocyclopenta[b]thiophene-4,3′-azetidine]-3-carbonitrile] | 0.1 to 1 | 1 to 20
